Reference: patent US7265091B2, “Methods and compositions for treating male erectile dysfunction” (The Regents of the University of California, priority 2000, dated 2007)
Read-outs that look alike come from different tables or passages of the source.

What was measured:
[1] = test system: Erectile Dysfunction Induced by Hypercholesterolemia in a Rat Model; assay: Erectile function in rats fed a high cholesterol diet (Example 5); type: in vivo; conditions: 6 months cholesterol diet, 4 months after intracavernous treatment
Protocol: Twenty-one Sprague-Dawley rats were used. All rats were fed a 2.5% cholesterol diet with added lard starting at 2 weeks of age for 6 months. The rats were divided into three groups. All groups after two months of a high cholesterol diet underwent serum evaluation of cholesterol and intracavernous injection of saline or treatment. Group 1, the control group, received intracavernous injection of saline, group 2, the VEGF group, received intracavernous injection of 4 ug of VEGF, and group 3, the AAV-BDNF group received 15 ug of BDNF. After six months of cholesterol diet and 4 months of treatment, all rats were subjected to cavernous nerve electrostimulation, cavernosometry with intracavernous papaverine injection, and infusion cavernosometry with heparinized saline to measure erectile function.

[2] = test system: Rat Model of Traumatic Arteriogenic Erectile Dysfunction
From the text: Bipolar platinum-wire electrodes were used to stimulate the cavernous nerve. The exposed end of the electrodes were hooked around the nerve to be stimulated, with the positive electrode being positioned proximally and the negative electrode two to three mm distally. Stimulus parameters were 1.5 volts, frequency of 20 pulses per second, pulse width of 0.2 msec, and the duration of 50 seconds. Intracavernous pressure was monitored and recorded by inserting a number 23 scalp vein needle to one of the crura and connected to a pressure monitor.

[3] = test system: dorsal nerve, intracavernous smooth muscle cells and endothelial cells; assay: Transmission electron microscopy of penile tissue (Example 2); type: in vivo, rat
From the text: Thick sections were cut and stained with toluidine blue to select specific areas for thin sectioning. Thin sections were cut, stained with both uranyl acetate and Reynold's Lead, and examined under the Phillips Tecnai 10 transmission electron microscope. Penile tissues from 4 randomly chosen rats in each subgroups were subjected to electron microscopic examinations.

[4] = test system: penile smooth muscle (alpha actin); assay: Alpha-smooth muscle actin immunohistochemistry of rat penis with image analysis; type: in vivo; conditions: castrated rats
Protocol: Frozen sections were cut at 10 microns, adhered to charged slides, air dried for 15 minutes then rehydrated with 0.05M PBS for 5 minutes. […] The serum solution was drained and then sections were incubated for 60 minutes with mouse monoclonal anti-alpha-smooth muscle actin (Sigma, St. Louis, Mo.) at a dilution of 1:4000 in PBS. […] Immunochemistry was performed in penile tissues from 4 rats randomly chosen from each subgroup.
Cross-sectional micrographs of the rat penis at the proximal shaft were examined after immunohistochemistry for alpha actin. Alpha actin, a marker for penile smooth muscle, stains brown and can be seen surrounding the sinusoidal spaces. […] Computerized image analysis with Adobe Photoshop was used to quantify the area of immunostaining by counting the number of digitized pixels corresponding to the area of brown staining, thereby providing some numerical comparison of the quantity of smooth muscle in each specimen.

[5] = test system: Penile dorsal arteries; conditions: serum-free medium, 3 days
Protocol: Penile dorsal arteries were isolated from rats and cut into 1-mm segments under a 10× microscope. Each segment was attached to a Matrigel-coated coverslip, which was then put in a 60-mm culture dish. Serum-free medium with or without VEGF was added and the arterial culture was incubated for 3 days.

[6] = test system: nNOS-positive nerve fibers in dorsal and intracavernous nerves; conditions: 2 & 4 μg VEGF, week 6; not statistically significant
[7] = test system: blood vessels and nerve fibers in the penis; assay: Penile tissue histology, nNOS staining and electron microscopy (Example 9); type: in vivo, rat; conditions: 3 months after bilateral cavernous nerve freezing
Protocol: (§1) Three months old Sprague-Dawley rats (N=30) were used: 6 underwent a sham operation; 24 underwent bilateral cavernous nerve freezing and then randomly divided into four groups of 6 each. The four groups of rats received intracavernous injection of one of the following: 1) phosphate buffered saline (PBS), 2) VEGF protein (4 μg), 3) adeno-associated virus (AAV)-BDNF, and 4). VEGF+AAV-BDNF. Erectile function was assessed by cavernous nerve electrostimulation 3 months later and samples of penile tissue were obtained for electron microscopy and immunohistochemical studies.

[8] = test system: cavernous nerve injury in rats; assay: Maximal intracavernous pressure after bilateral cavernous nerve freezing (Example 9, VENT); type: in vivo, rat; conditions: 3 months after bilateral cavernous nerve freezing, intracavernous injection
Protocol: as §1

[9] = test system: venogenic erectile dysfunction in castrated rats; assay: Pharmacologic cavernosometry, prevention trial in castrated rats (Experiment 2); type: in vivo, rat; conditions: castrated rats treated at castration, cavernosometry 9 weeks after castration
From the text: For the prevention trial of VEGF in rats with venogenic erectile ED, adult males were castrated and immediately treated with hormone, intracavernosal VEGF. […] Control animals received an silastic implant containing saline (n=3), an intracavernous injection of normal saline (n=3) or an […] transfection vector expressing lacZ reporter gene without the VEGF gene (AAV-LacZ, n=11).
A 1.5 cm oblique incision was made in the lower abdominal skin extending from the midline just above the penile hilum to below the level of the glans about 1 cm lateral to the midline. The skin was sharply dissected from the anterior surface of the penis and then the penis was retracted anteriorly using a towel clamp placed around it atraumatically with the foreskin left intact. Using blunt dissection the penile base and crura were exposed. The ischiocavernosus muscles were sharply dissected off the anterior surface of the crus until the white of the tunica albuginea of the corpora cavernosa was identified. The crus was then gently cannulated using a 23 gage butterfly needle, and saline flush with a visual erectile response was used to confirm that the needle tip was truly intracavernosal. The intracavernosal injections were then administered with either VEGF protein (Calbiochem, La Jolla, Calif. #676472) at the dosage 4 ug/injection (in 0.1 cc PBS with 0.1% BSA), AAV-VEGF (10^10 viral particles in 0.1 cc NS), AAV-LacZ (10^10 viral particles in 0.1 cc NS), or 0.1 ml NS alone. The AAV-VEGF and AAV-LacZ constructs were a generous gift from Dr. Yuet W. Kan (Howard Hughes Medical Research Institute, San Francisco, Calif.).^19,20 Following injection, the needle was left in place for 5 minutes and then removed to allow the medication to diffuse throughout the cavernosal space. Immediately thereafter, pinpoint electrocautery was applied to the needle hole for hemostasis and then the wound was closed and the animal recovered as above.
Following castration, testosterone- or saline-filled silastic implants were placed in the subcutaneous tissue of the anterior abdominal wall, as previously described.^17 Implants were prepared using sterile silastic tubing (Dow Coming, Midland, Mich. #602-265, inner diameter 0.062″) that was filled with testosterone propionate powder (Sigma Chemical, St. Louis, Mo.) with the aid of wall suction.
To perform pharmacologic cavemosometry, both the right and left crura were separately cannulated using 23 gauge butterfly needles as described above. One cannula was flushed with sterile heparinized saline (100 U heparin/ml NS) and attached to a pressure detector for continuous intracorporal pressure (ICP) monitoring as previously described.^11 The contralateral cannula was attached to an infusion pump (Harvard Pump, Southwick, Mass. #55-2222), filled with sterile dilute heparinized saline (20 U heparin/ml NS). The baseline ICP was recorded (flaccid ICP) and then a dose of papavarine (1 mg in 0.1 cc NS) was administered through the infusion cannula. Five minutes was allowed for the papavarine to diffuse throughout the corpora and then the infusion cannula was flushed with heparinized saline and the pressure monitor cannula vented to normalize ICP after flushing. After 5 minutes more, the ICP was again recorded (ICP after papavarine) and the infusion started. An infusion rate of 0.05 ml/min was started and increased (by 0.05 ml/min every 10 seconds) until the ICP started to rise. Subsequent increases in inflow rate were made only after the ICP reached a plateau pressure. By slowly adjusting the inflow rate, an intracorporal pressure of 100 cm H2O (erectile pressure) was reached and the infusion rate required to maintain this pressure recorded (the maintenance rate). After this pressure was steady for 20 seconds, the infusion was terminated and the change in ICP over the subsequent 60 seconds was recorded (the drop rate).

[10] = castrated rats treated with VEGF or AAV-VEGF (pooled)

VEGF
effect on erectile dysfunction caused by high cholesterol diet [1]: seem to reverse the erectile dysfunction
sustained intracavernous pressures during the pharmacologic erection phase of cavernosometry, vs high cholesterol controls [1]: significantly higher
Peak sustained intracavernous pressure during electrostimulation of the cavernous nerves ([2]; 2 μg VEGF intracavernous, Week 1): 23.50 ± 2.38 cm H20
Peak sustained intracavernous pressure during electrostimulation of the cavernous nerves ([2]; 2 μg VEGF intracavernous, Week 2): 43.00 ± 8.37 cm H20
Peak sustained intracavernous pressure during electrostimulation of the cavernous nerves ([2]; 2 μg VEGF intracavernous, Week 6): 69.00 ± 8.83 cm H20
Peak sustained intracavernous pressure during electrostimulation of the cavernous nerves ([2]; 4 μg VEGF intracavernous, Week 1): 71.17 ± 16.89 cm H20
Peak sustained intracavernous pressure during electrostimulation of the cavernous nerves ([2]; 4 μg VEGF intracavernous, Week 2): 86.25 ± 8.18 cm H20
Peak sustained intracavernous pressure during electrostimulation of the cavernous nerves ([2]; 4 μg VEGF intracavernous, Week 6): 96.67 ± 13.50 cm H20
improvement in intracavernous pressure compared with the PBS-treated group ([2]; 2-μg and 4-μg groups, week 6): statistically significant improvement
recovery of erectile function ([2]; 4-μg group, weeks 1 and 2): moderate recovery
endothelial cells lining capillaries and sinusoids ([3]; castrated rats): endothelial hypertrophy and hyperplasia
mean diameter of non-myelinated axons, dorsal nerve [3, 10]: 0.96±0.33 μm
mean diameter of the myelinated nerve, dorsal nerve [3, 10]: 2.36±0.92 μm
mean thickness of myelin sheath, dorsal nerve [3, 10]: 0.93±0.44 μm
intracavernous smooth muscle morphology ([3]; castrated rats, compared to castrated+Lac Z rats): arranged in clusters with minimal intercellular spaces
quantity of penile smooth muscle, qualitative [4]: returns to normal morphology
pixel count of alpha actin immunostaining (quantity of smooth muscle) ([4]; proximal penile shaft): 52990
length of budding new blood vessels vs untreated culture [5]: significantly longer
recovery of nNOS-positive nerve fibers in dorsal and intracavernous nerves [6]: moderate recovery
nNOS positive nerve fibers in the dorsal nerves compared to PBS group [7]: increased number
maximal intracavernous pressure (MICP), mean±SEM [8]: 37.33±3.29 cm H2O
Drop Rate in 1 min. [9]: 9.0(+/−20) cm H2O
Flaccid ICP [9]: 27.8 cm H2O
ICP After Papavarine [9]: 85.0(+/−28) cm H2O
Maintenance Rate [9]: 0.04(+/−0.09) ml/min
